From patent US20260250318A1, “COMPOSITIONS AND METHODS FOR CROSSING THE BLOOD BRAIN BARRIER” (VOYAGER THERAPEUTICS, INC., priority 2022, published 2026) come the findings set out here.

In the first test the test system is brain. In words: Matured TTM-001 and TTM-002 variants, NGS enrichment in mouse brain. Conditions: NGS fold-enrichment, mouse brain, relative to AAV9 control. Type of test: in vivo, mice.
In the case of KTVNGHDSPHKSGQNHLT, the “Fold Enrichment relative to AAV9, Brain (Mouse)” value was 16.096 fold.

Regarding KTESRHDSPHKSGQNQQT, the “Fold Enrichment relative to AAV9, Brain (Mouse)” value was 6.975 fold.

Consider KTINGHDSPHKSGQNKLE, for which the “Fold Enrichment relative to AAV9, Brain (Mouse)” value is on record as 12.419 fold.

On to KTINGHDSPHKTGQNQPP, for which the “Fold Enrichment relative to AAV9, Brain (Mouse)” value came to 8.865 fold.

Still in this test, the particulars now being: mouse brain; relative to AAV9 control.
Take KTIPMEGSPHSKAQNQQT: the “Fold Enrichment relative to AAV9, Brain (Mouse)” value turned out to be 89.951 fold.

In the case of KTVNGSGSPHSKAQLQQT, the “Fold Enrichment relative to AAV9, Brain (Mouse)” value is recorded as 81.201 fold.

For the sequence KTINGGGSPHSKAQRQQT, the “Fold Enrichment relative to AAV9, Brain (Mouse)” value is given as 147.942 fold.

For KTEQVSGSPHSKAQNQQT, the “Fold Enrichment relative to AAV9, Brain (Mouse)” value came to 88.487 fold.

For KTINGSGSPHSKAQRTCT, the “Fold Enrichment relative to AAV9, Brain (Mouse)” value came out at 90.146 fold.

The test system of another test is brains, heart, liver, muscle, and DRG of the NHPs. In words: Maturation of TTM-001 and TTM-002 capsids, NGS enrichment in NHP tissues. Conditions: NGS fold-enrichment of RNA, NHP brain, relative to AAV9 control. The format is in vivo. In a few lines: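 Variants carry mutations within and flanking the loop IV peptide insert: positions 450–466 were triplet-randomized, while positions 449–466 received low-frequency point mutations. The combined pool went into two NHPs, and each peptide was scored by NGS enrichment ratio against AAV9.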
KTVNGHDSPHKSGQNHLT: the “Fold Enrichment relative to AAV9, Brain (NHP)” value was 81.516 fold.

KTESRHDSPHKSGQNQQT: the “Fold Enrichment relative to AAV9, Brain (NHP)” value is recorded as 81.766 fold.

Regarding KTINGHDSPHKSGQNKLE, the “Fold Enrichment relative to AAV9, Brain (NHP)” value was 76.204 fold.

KTINGHDSPHKTGQNQPP: the “Fold Enrichment relative to AAV9, Brain (NHP)” value is on record as 77.357 fold.

The same test, now with this note: NGS fold-enrichment of matured AAV capsid variants; NHP brain, RNA; relative to AAV9 control.
Take KTIPMEGSPHSKAQNQQT: the “Fold Enrichment relative to AAV9, Brain (NHP)” value came to 56.560 fold.

Turning to KTVNGSGSPHSKAQLQQT, the “Fold Enrichment relative to AAV9, Brain (NHP)” value came to 58.681 fold.

Take KTINGGGSPHSKAQRQQT: the “Fold Enrichment relative to AAV9, Brain (NHP)” value is given as 50.998 fold.

In the case of KTEQVSGSPHSKAQNQQT, the “Fold Enrichment relative to AAV9, Brain (NHP)” value is reported as 58.247 fold.

As for KTINGSGSPHSKAQRTCT, the “Fold Enrichment relative to AAV9, Brain (NHP)” value is listed as 57.863 fold.

The same test, now with this note: NGS fold-enrichment, NHP DRG, relative to AAV9 control.
On to KTVNGHDSPHKSGQNHLT, for which the “Fold Enrichment relative to AAV9, DRG (NHP)” value is 0.000 fold.

In the case of KTESRHDSPHKSGQNQQT, the “Fold Enrichment relative to AAV9, DRG (NHP)” value was found to be 0.000 fold.

As for KTINGHDSPHKSGQNKLE, the “Fold Enrichment relative to AAV9, DRG (NHP)” value came to 0.000 fold.

For KTINGHDSPHKTGQNQPP, the “Fold Enrichment relative to AAV9, DRG (NHP)” value amounted to 0.000 fold.

Still in this test, the particulars now being: NGS fold-enrichment, NHP heart, relative to AAV9 control.
For the sequence KTVNGHDSPHKSGQNHLT, the “Fold Enrichment relative to AAV9, Heart (NHP)” value is recorded as 0.100 fold.

In the case of KTESRHDSPHKSGQNQQT, the “Fold Enrichment relative to AAV9, Heart (NHP)” value is listed as 0.011 fold.

As for KTINGHDSPHKSGQNKLE, the “Fold Enrichment relative to AAV9, Heart (NHP)” value was 1.430 fold.

As to KTINGHDSPHKTGQNQPP, the “Fold Enrichment relative to AAV9, Heart (NHP)” value was 0.149 fold.

The same test, now with this note: NGS fold-enrichment, NHP liver DNA, relative to AAV9 control.
Take KTVNGHDSPHKSGQNHLT: the “Fold Enrichment relative to AAV9, Liver DNA (NHP)” value is 0.028 fold.

KTESRHDSPHKSGQNQQT: the “Fold Enrichment relative to AAV9, Liver DNA (NHP)” value was 0.036 fold.

As for KTINGHDSPHKSGQNKLE, the “Fold Enrichment relative to AAV9, Liver DNA (NHP)” value is reported as 0.031 fold.

With KTINGHDSPHKTGQNQPP, the “Fold Enrichment relative to AAV9, Liver DNA (NHP)” value was 0.096 fold.

The test is the same for the next values; noted with them: NGS fold-enrichment, NHP liver RNA, relative to AAV9 control.
For KTVNGHDSPHKSGQNHLT, the “Fold Enrichment relative to AAV9, Liver RNA (NHP)” value amounted to 0.000 fold.

As for KTESRHDSPHKSGQNQQT, the “Fold Enrichment relative to AAV9, Liver RNA (NHP)” value came out at 0.052 fold.

With KTINGHDSPHKSGQNKLE, the “Fold Enrichment relative to AAV9, Liver RNA (NHP)” value is 0.015 fold.

Consider KTINGHDSPHKTGQNQPP, for which the “Fold Enrichment relative to AAV9, Liver RNA (NHP)” value was 0.000 fold.

Staying with this test, now noted: NGS fold-enrichment, NHP muscle, relative to AAV9 control.
On to KTVNGHDSPHKSGQNHLT, for which the “Fold Enrichment relative to AAV9, Muscle (NHP)” value is 0.017 fold.

KTESRHDSPHKSGQNQQT: the “Fold Enrichment relative to AAV9, Muscle (NHP)” value was found to be 0.000 fold.

In the case of KTINGHDSPHKSGQNKLE, the “Fold Enrichment relative to AAV9, Muscle (NHP)” value turned out to be 0.000 fold.

Consider KTINGHDSPHKTGQNQPP, for which the “Fold Enrichment relative to AAV9, Muscle (NHP)” value was found to be 0.000 fold.

The test is the same for the next values; noted with them: NHP DRG; relative to AAV9 control.
As for KTIPMEGSPHSKAQNQQT, the “Fold Enrichment relative to AAV9, DRG (NHP)” value is reported as 0.000 fold.

Regarding KTVNGSGSPHSKAQLQQT, the “Fold Enrichment relative to AAV9, DRG (NHP)” value is on record as 0.315 fold.

In the case of KTINGGGSPHSKAQRQQT, the “Fold Enrichment relative to AAV9, DRG (NHP)” value was 0.000 fold.

For the sequence KTEQVSGSPHSKAQNQQT, the “Fold Enrichment relative to AAV9, DRG (NHP)” value is reported as 0.000 fold.

For KTINGSGSPHSKAQRTCT, the “Fold Enrichment relative to AAV9, DRG (NHP)” value amounted to 0.000 fold.

The test is the same for the next values; noted with them: NHP heart; relative to AAV9 control.
In the case of KTIPMEGSPHSKAQNQQT, the “Fold Enrichment relative to AAV9, Heart (NHP)” value is given as 0.000 fold.

As for KTVNGSGSPHSKAQLQQT, the “Fold Enrichment relative to AAV9, Heart (NHP)” value turned out to be 0.465 fold.

On to KTINGGGSPHSKAQRQQT, for which the “Fold Enrichment relative to AAV9, Heart (NHP)” value came to 0.041 fold.

In the case of KTEQVSGSPHSKAQNQQT, the “Fold Enrichment relative to AAV9, Heart (NHP)” value is reported as 0.000 fold.

On to KTINGSGSPHSKAQRTCT, for which the “Fold Enrichment relative to AAV9, Heart (NHP)” value was 0.140 fold.

The test is the same for the next values; noted with them: NHP liver, DNA; relative to AAV9 control.
KTIPMEGSPHSKAQNQQT: the “Fold Enrichment relative to AAV9, Liver DNA (NHP)” value is listed as 0.371 fold.

Consider KTVNGSGSPHSKAQLQQT, for which the “Fold Enrichment relative to AAV9, Liver DNA (NHP)” value is on record as 0.333 fold.

As for KTINGGGSPHSKAQRQQT, the “Fold Enrichment relative to AAV9, Liver DNA (NHP)” value came to 0.142 fold.

As to KTEQVSGSPHSKAQNQQT, the “Fold Enrichment relative to AAV9, Liver DNA (NHP)” value is given as 0.081 fold.

Take KTINGSGSPHSKAQRTCT: the “Fold Enrichment relative to AAV9, Liver DNA (NHP)” value is reported as 1.716 fold.

The same test, now with this note: NHP liver, RNA; relative to AAV9 control.
As for KTIPMEGSPHSKAQNQQT, the “Fold Enrichment relative to AAV9, Liver RNA (NHP)” value is given as 1.824 fold.

KTVNGSGSPHSKAQLQQT: the “Fold Enrichment relative to AAV9, Liver RNA (NHP)” value was 0.529 fold.

Turning to KTINGGGSPHSKAQRQQT, the “Fold Enrichment relative to AAV9, Liver RNA (NHP)” value was 0.991 fold.

Consider KTEQVSGSPHSKAQNQQT, for which the “Fold Enrichment relative to AAV9, Liver RNA (NHP)” value turned out to be 0.000 fold.

With KTINGSGSPHSKAQRTCT, the “Fold Enrichment relative to AAV9, Liver RNA (NHP)” value was 1.855 fold.

Still in this test, the particulars now being: NHP muscle; relative to AAV9 control.
For KTIPMEGSPHSKAQNQQT, the “Fold Enrichment relative to AAV9, Muscle (NHP)” value is 0.000 fold.

Regarding KTVNGSGSPHSKAQLQQT, the “Fold Enrichment relative to AAV9, Muscle (NHP)” value is listed as 0.045 fold.

With KTINGGGSPHSKAQRQQT, the “Fold Enrichment relative to AAV9, Muscle (NHP)” value is listed as 0.000 fold.

For the sequence KTEQVSGSPHSKAQNQQT, the “Fold Enrichment relative to AAV9, Muscle (NHP)” value amounted to 0.000 fold.

Regarding KTINGSGSPHSKAQRTCT, the “Fold Enrichment relative to AAV9, Muscle (NHP)” value stood at 0.129 fold.
